Biological target: T1, Phospholipase D1 (Homo sapiens, UniProt Q13393)
T1 sequence (Q13393 whole entry): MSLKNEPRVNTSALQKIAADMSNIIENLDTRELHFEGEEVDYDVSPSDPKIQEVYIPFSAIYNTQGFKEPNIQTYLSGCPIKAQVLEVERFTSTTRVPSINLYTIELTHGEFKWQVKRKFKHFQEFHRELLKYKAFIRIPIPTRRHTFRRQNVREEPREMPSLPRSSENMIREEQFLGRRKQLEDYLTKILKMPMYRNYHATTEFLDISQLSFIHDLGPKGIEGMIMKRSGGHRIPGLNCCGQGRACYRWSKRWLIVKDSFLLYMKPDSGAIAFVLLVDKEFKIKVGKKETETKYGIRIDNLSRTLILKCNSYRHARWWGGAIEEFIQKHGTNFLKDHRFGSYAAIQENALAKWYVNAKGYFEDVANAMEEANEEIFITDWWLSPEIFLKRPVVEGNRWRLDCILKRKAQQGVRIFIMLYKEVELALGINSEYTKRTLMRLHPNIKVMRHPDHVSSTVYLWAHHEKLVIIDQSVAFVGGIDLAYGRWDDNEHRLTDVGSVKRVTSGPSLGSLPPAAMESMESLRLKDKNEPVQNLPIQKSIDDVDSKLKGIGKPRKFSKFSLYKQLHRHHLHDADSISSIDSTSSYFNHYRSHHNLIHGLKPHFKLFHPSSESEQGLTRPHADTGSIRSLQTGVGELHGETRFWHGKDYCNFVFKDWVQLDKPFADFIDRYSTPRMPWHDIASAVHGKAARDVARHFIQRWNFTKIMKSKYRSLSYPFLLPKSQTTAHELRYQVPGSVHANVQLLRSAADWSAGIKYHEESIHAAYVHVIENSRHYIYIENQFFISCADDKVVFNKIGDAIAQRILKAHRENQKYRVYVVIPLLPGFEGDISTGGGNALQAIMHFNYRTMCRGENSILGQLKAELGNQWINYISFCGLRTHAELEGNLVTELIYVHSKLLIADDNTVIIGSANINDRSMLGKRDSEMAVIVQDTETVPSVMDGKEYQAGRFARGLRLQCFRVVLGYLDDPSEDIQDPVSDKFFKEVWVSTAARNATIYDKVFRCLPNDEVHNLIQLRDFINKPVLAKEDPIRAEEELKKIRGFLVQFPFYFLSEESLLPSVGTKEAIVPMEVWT
Assay: In vivo Deuterated 1-Butanol PLD Assay
Procedure: Cells were seeded into 12-well tissue culture plates to reach 90% confluence at the time of assay. All cell types, aside from the HEK293-gfpPLD2 cells, were serum-starved 18 h prior to experiment in DMEM, 0.5% FBS, 1% AA. Cells werepretreated in the presence of test compound (50 μM to 5 nM) or DMSO (vehicle control) in DMEM for 5 min at rt. After pretreatment, media was removed, and cells were treated with DMEM + 1 μM PMA + 0.3% 1-butanol-d10, and either test compound, DMSO vehicle control, or DMEM alone for 30 min at 37 °C. HEK293-gfpPLD2 cells were treated in the presence of DMEM + 0.3% 1-butanol-d10 and either test compound or DMSO but were not stimulated with PMA. After treatment, samples were extracted, and 1,2-dihexanoyl-snglycero-3-phosphomethanol ([…]) was added as an internal standard. The lipids were isolated, the solvent was evaporated, and the resulting lipid film was resuspended in MS solvent (9:1 methanol/chloroform + 1 μL of NH4OH). Samples were

## Oc1ccc(-c2sc3cc(O)ccc3c2-c2ccc(OCCN3CCCCC3)cc2)cc1 [Desketoraloxifene (10)]
  IC50: 6.1 µM

Reference: BindingDB's records for doi:10.1021/cb500828m (Vanderbilt University, 2015)
